In series [1] the test system is Streptococcus pyogenes SSI-9. Briefly: Antibacterial activity assay of bead-derived peptides (three concentrations). Also noted: key: +++: inhibition by the 640-fold diluted peptide solution; ++: inhibition by the 160-fold diluted solution; +: inhibition by the 40-fold diluted solution; -: no inhibition. Type of series: cell-based. The settings on record: S. pyogenes, bead-derived peptide solution, three concentrations. Put shortly:
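Growth inhibition scored visually as precipitated bacteria after 37 °C, 18 h incubation. Streptococcus pyogenes SSI-9 inoculum of 2 × 10^5 CFU in Ca2+/Mg2+-adjusted Mueller Hinton broth plus 5% laked horse blood; peptides tested at three levels: stock, 4-fold and 16-fold DMSO dilutions.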

The nature of series [2]: H+/Na+ transport assay of bead-derived peptides (one-point).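 Note: relative to parent gramicidin A activity set to 1.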 Type of series: biochemical. Also noted: key: relative activity; mean of two control wells = 1.00. The settings on record: bead-derived peptide solution, EYPC/EYPG LUVs. Put shortly:
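Values are normalized fluorescence, with Triton X-100 defining 100% and untreated LUVs 0%, and the two control wells averaging 1.00. Vesicles carried 1.0 mM pyranine and included egg yolk phosphatidylglycerol. Peptides were incubated with them 30 min at room temperature.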

In series [3] the test system is P388 mouse leukemia cells. The note with it: 92 h. Put shortly: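 Peptide stocks diluted 250× in growth medium; P388 cells 1 × 10^4 cells/mL final; 37 °C, 5% CO2, 92 h. WST-1 + 1-methoxy PMS, 4 h, A415. Output: % viability.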

Where a SMILES comes first, the peptide text is derived from it. [ ]: non-standard residue; d: D form. The star is where a group is joined. NHCH2CH2OH = OCCN*; For = O=C*

On to `CC(C)C[C@@H](NC(=O)[C@H](Cc1c[nH]c2ccccc12)NC(=O)[C@H](NC(=O)[C@H](Cc1c[nH]c2ccccc12)NC(=O)[C@@H](CC(C)C)NC(=O)[C@H](Cc1c[nH]c2ccccc12)NC(=O)[C@H](NC(=O)[C@@H](NC(=O)[C@H](NC(=O)[C@H](C)NC(=O)[C@H](NC(=O)[C@H](C)NC(=O)CNC(=O)[C@@H](NC=O)C(C)C)C(C)C)C(C)C)C(C)C)[C@H](C)O)C(C)C)C(=O)N[C@@H](Cc1c[nH]c2ccccc12)C(=O)NCCO` [compound 7702] (For-VGA[dV]A[dV]V[dT]W[dL]W[dV]W[dL]W-NHCH2CH2OH), for which the antibacterial activity result in series [1] was “-”. In series [2], the “H+/Na+ transport activity normalized against the value of 1 (1.00)” value (from here on “H+/Na+ transport activity normalized”) amounted to 1.01. In addition, in series [3], the cell viability/% was 100.0%.
Taken in the same sequence, the figures for `CNC(=O)C[C@@H](NC(=O)[C@@H](NC(=O)[C@H](NC(=O)[C@H](C)NC(=O)[C@@H](CC(C)C)NC(=O)[C@H](C)NC(=O)CNC(=O)[C@@H](NC=O)C(C)C)C(C)C)C(C)C)C(=O)N[C@@H](Cc1c[nH]c2ccccc12)C(=O)N[C@@H](C(=O)N[C@@H](Cc1c[nH]c2ccccc12)C(=O)N[C@H](CC(C)C)C(=O)N[C@@H](Cc1c[nH]c2ccccc12)C(=O)N[C@H](CC(C)C)C(=O)N[C@@H](Cc1c[nH]c2ccccc12)C(=O)NCCO)C(C)C` [compound 7808] (For-VGA[dL]A[dV]V[dD](NHMe)W[dV]W[dL]W[dL]W-NHCH2CH2OH) were “-”, 1.21 and 100.0%.
Taken in the same sequence, the figures for `CC(C)C[C@@H](NC(=O)[C@H](C)NC(=O)[C@H](NC(=O)[C@H](C)NC(=O)CNC(=O)[C@@H](NC=O)C(C)C)C(C)C)C(=O)N[C@H](C(=O)N[C@@H](C(=O)N[C@@H](Cc1c[nH]c2ccccc12)C(=O)N[C@@H](C(=O)N[C@@H](Cc1c[nH]c2ccccc12)C(=O)N[C@H](CC(C)C)C(=O)N[C@@H](Cc1c[nH]c2ccccc12)C(=O)N[C@H](CC(C)C)C(=O)N[C@@H](Cc1c[nH]c2ccccc12)C(=O)NCCO)C(C)C)[C@H](C)O)C(C)C` [compound 7840] (For-VGA[dV]A[dL]V[dT]W[dV]W[dL]W[dL]W-NHCH2CH2OH) were “-”, 1.12 and 100.0%.
Taken in the same sequence, the figures for `CC(C)C[C@@H](NC(=O)[C@H](C)NC(=O)CNC(=O)[C@@H](NC=O)C(C)C)C(=O)N[C@@H](C)C(=O)N[C@H](CC(C)C)C(=O)N[C@H](C(=O)N[C@@H](C(=O)N[C@@H](Cc1c[nH]c2ccccc12)C(=O)N[C@@H](C(=O)N[C@@H](Cc1c[nH]c2ccccc12)C(=O)N[C@@H](C(=O)N[C@@H](Cc1c[nH]c2ccccc12)C(=O)N[C@@H](C(=O)N[C@@H](Cc1c[nH]c2ccccc12)C(=O)NCCO)C(C)C)C(C)C)C(C)C)C(C)C)C(C)C` [compound 7845] (For-VGA[dL]A[dL]V[dV]W[dV]W[dV]W[dV]W-NHCH2CH2OH) were “+”, 1.04 and 100.0%.
As for `CC(C)C[C@@H](NC(=O)[C@H](Cc1c[nH]c2ccccc12)NC(=O)[C@@H](CC(C)C)NC(=O)[C@H](Cc1c[nH]c2ccccc12)NC(=O)[C@@H](CC(C)C)NC(=O)[C@H](Cc1c[nH]c2ccccc12)NC(=O)[C@@H](CC(C)C)NC(=O)[C@@H](NC(=O)[C@H](NC(=O)[C@H](C)NC(=O)[C@H](NC(=O)[C@H](C)NC(=O)CNC(=O)[C@@H](NC=O)C(C)C)C(C)C)C(C)C)C(C)C)C(=O)N[C@@H](Cc1c[nH]c2ccccc12)C(=O)NCCO` [compound 7864] (For-VGA[dV]A[dV]V[dL]W[dL]W[dL]W[dL]W-NHCH2CH2OH), the antibacterial activity entry in series [1] is reported as “+”. Further, the “H+/Na+ transport activity normalized” value in series [2] is recorded as 1.01. The cell viability/% in series [3] is given as 10.8%.
Taken in the same sequence, the figures for `CC(C)C[C@@H](NC(=O)[C@H](C)NC(=O)[C@H](NC(=O)[C@H](C)NC(=O)CNC(=O)[C@@H](NC=O)C(C)C)[C@H](C)O)C(=O)N[C@H](C(=O)N[C@H](CC(C)C)C(=O)N[C@@H](Cc1c[nH]c2ccccc12)C(=O)N[C@@H](C(=O)N[C@@H](Cc1c[nH]c2ccccc12)C(=O)N[C@H](CC(C)C)C(=O)N[C@@H](Cc1c[nH]c2ccccc12)C(=O)N[C@H](CC(C)C)C(=O)N[C@@H](Cc1c[nH]c2ccccc12)C(=O)NCCO)C(C)C)C(C)C` [compound 7890] (For-VGA[dT]A[dL]V[dL]W[dV]W[dL]W[dL]W-NHCH2CH2OH) were “-”, 1.11 and 100.0%.
For `CC(C)C[C@@H](NC(=O)[C@H](C)NC(=O)[C@H](NC(=O)[C@H](C)NC(=O)CNC(=O)[C@@H](NC=O)C(C)C)[C@H](C)O)C(=O)N[C@H](C(=O)N[C@H](CC(C)C)C(=O)N[C@@H](Cc1c[nH]c2ccccc12)C(=O)N[C@H](CC(C)C)C(=O)N[C@@H](Cc1c[nH]c2ccccc12)C(=O)N[C@H](CC(C)C)C(=O)N[C@@H](Cc1c[nH]c2ccccc12)C(=O)N[C@H](CC(C)C)C(=O)N[C@@H](Cc1c[nH]c2ccccc12)C(=O)NCCO)C(C)C` [compound 7905] (For-VGA[dT]A[dL]V[dL]W[dL]W[dL]W[dL]W-NHCH2CH2OH), in that order: “-”, 1.10 and 100.0%.
Taken in the same sequence, the figures for `CC(C)C[C@@H](NC(=O)[C@H](C)NC(=O)CNC(=O)[C@@H](NC=O)C(C)C)C(=O)N[C@@H](C)C(=O)N[C@@H](C(=O)N[C@H](C(=O)N[C@H](CC(C)C)C(=O)N[C@@H](Cc1c[nH]c2ccccc12)C(=O)N[C@@H](C(=O)N[C@@H](Cc1c[nH]c2ccccc12)C(=O)N[C@@H](C(=O)N[C@@H](Cc1c[nH]c2ccccc12)C(=O)N[C@@H](C(=O)N[C@@H](Cc1c[nH]c2ccccc12)C(=O)NCCO)C(C)C)C(C)C)C(C)C)C(C)C)C(C)C` [compound 7938] (For-VGA[dL]A[dV]V[dL]W[dV]W[dV]W[dV]W-NHCH2CH2OH) were “+”, 1.10 and 17.4%.
On to `CNC(=O)C[C@@H](NC(=O)[C@H](Cc1c[nH]c2ccccc12)NC(=O)[C@H](NC(=O)[C@H](Cc1c[nH]c2ccccc12)NC(=O)[C@@H](CC(C)C)NC(=O)[C@H](Cc1c[nH]c2ccccc12)NC(=O)[C@H](NC(=O)[C@@H](NC(=O)[C@H](NC(=O)[C@H](C)NC(=O)[C@@H](CC(C)C)NC(=O)[C@H](C)NC(=O)CNC(=O)[C@@H](NC=O)C(C)C)C(C)C)C(C)C)C(C)C)C(C)C)C(=O)N[C@@H](Cc1c[nH]c2ccccc12)C(=O)NCCO` [compound 7948] (For-VGA[dL]A[dV]V[dV]W[dL]W[dV]W[dD](NHMe)W-NHCH2CH2OH), for which, in series [1], the antibacterial activity entry is given as “-”. The “H+/Na+ transport activity normalized” value in series [2] came to 1.04. In series [3], this compound had a cell viability/% of 100.0%.
For `CNC(=O)C[C@@H](NC(=O)[C@@H](NC(=O)[C@H](NC(=O)[C@H](C)NC(=O)[C@H](NC(=O)[C@H](C)NC(=O)CNC(=O)[C@@H](NC=O)C(C)C)C(C)C)C(C)C)C(C)C)C(=O)N[C@@H](Cc1c[nH]c2ccccc12)C(=O)N[C@H](CC(C)C)C(=O)N[C@@H](Cc1c[nH]c2ccccc12)C(=O)N[C@@H](C(=O)N[C@@H](Cc1c[nH]c2ccccc12)C(=O)N[C@@H](C(=O)N[C@@H](Cc1c[nH]c2ccccc12)C(=O)NCCO)C(C)C)C(C)C` [compound 8057] (For-VGA[dV]A[dV]V[dD](NHMe)W[dL]W[dV]W[dV]W-NHCH2CH2OH), in that order: “-”, 1.13 and 100.0%.
For `CNC(=O)C[C@@H](NC(=O)[C@@H](NC(=O)[C@@H](CC(C)C)NC(=O)[C@H](C)NC(=O)[C@@H](CC(C)C)NC(=O)[C@H](C)NC(=O)CNC(=O)[C@@H](NC=O)C(C)C)C(C)C)C(=O)N[C@@H](Cc1c[nH]c2ccccc12)C(=O)N[C@H](CC(C)C)C(=O)N[C@@H](Cc1c[nH]c2ccccc12)C(=O)N[C@H](CC(C)C)C(=O)N[C@@H](Cc1c[nH]c2ccccc12)C(=O)N[C@H](CC(C)C)C(=O)N[C@@H](Cc1c[nH]c2ccccc12)C(=O)NCCO` [compound 8061] (For-VGA[dL]A[dL]V[dD](NHMe)W[dL]W[dL]W[dL]W-NHCH2CH2OH), in that order: “-”, 1.05 and 100.0%.
For `CNC(=O)C[C@@H](NC(=O)[C@H](C)NC(=O)[C@@H](CC(C)C)NC(=O)[C@H](C)NC(=O)CNC(=O)[C@@H](NC=O)C(C)C)C(=O)N[C@H](C(=O)N[C@@H](C(=O)N[C@@H](Cc1c[nH]c2ccccc12)C(=O)N[C@H](CC(C)C)C(=O)N[C@@H](Cc1c[nH]c2ccccc12)C(=O)N[C@@H](C(=O)N[C@@H](Cc1c[nH]c2ccccc12)C(=O)N[C@H](CC(C)C)C(=O)N[C@@H](Cc1c[nH]c2ccccc12)C(=O)NCCO)C(C)C)C(C)C)C(C)C` [compound 8265] (For-VGA[dL]A[dD](NHMe)V[dV]W[dL]W[dV]W[dL]W-NHCH2CH2OH), in that order: “-”, 1.12 and 68.3%.

The values above are taken from paper PMC7531004, “Discovery of gramicidin A analogues with altered activities by multidimensional screening of a one-bead-one-compound library” (Nature Communications, 2020).
